Our source for the MIC values is DBAASP.

What all share (assay): ≥ marks a high value that may be exact or a test limit, other limits are often not marked, values filed in µg/mL are converted to µM
The subject of test [1] is Candida albicans ATCC 90029.
The test system of test [2] is Candida albicans CA1.
The subject of test [3] is Candida krusei ATCC 40147.
Test [4] relates to Candida parapsilosis ATCC 90018.
The subject of test [5] is Candida tropicalis ATCC 750.
Test [6] relates to Enterococcus faecalis ATCC 51299.
For test [7], the system named is Enterococcus faecium ATCC 19434.
The subject of test [8] is Escherichia coli ATCC 35218.
Test [9] deals with Klebsiella pneumoniae ATCC 49472.
For test [10], the system named is Klebsiella pneumoniae ATCC BAA-2814.
Test [11] concerns Pseudomonas aeruginosa ATCC 27853.
For test [12], the system named is Salmonella enterica subsp. enterica serovar Typhimurium ATCC 14028.
Test [13] concerns Staphylococcus aureus ATCC 12600.
The test system of test [14] is Staphylococcus aureus ATCC BAA-2312.
Test [15] has as its system Pseudomonas aeruginosa 253.
Test [16] deals with Pseudomonas aeruginosa 910.
Test [17] concerns Pseudomonas aeruginosa 919.
Test [18] relates to Pseudomonas aeruginosa PAO1.
For test [19], the system named is Achromobacter xylosoxidans.
Test [20] concerns Candida albicans.
For test [21], the system named is Escherichia coli UB1005.
Test [22] concerns Pseudomonas aeruginosa M1251.
Test [23] deals with Pseudomonas aeruginosa M1426.
Test [24] concerns Pseudomonas aeruginosa M76.
For test [25], the system named is Pseudomonas aeruginosa M917.
Test [26] deals with Pseudomonas aeruginosa R70.
In test [27] the test system is Pseudomonas fluorescens.
The subject of test [28] is Ralstonia pickettii.
The subject of test [29] is Salmonella enterica serovar Typhimurium.
For test [30], the system named is Staphylococcus aureus.
The subject of test [31] is Stenotrophomonas maltophilia.
Test [32] relates to Escherichia coli 078.
Test [33] has as its system Escherichia coli 987P.
In test [34] the test system is Escherichia coli ATCC 25922.
Test [35] deals with Escherichia coli K88.
Test [36] concerns Escherichia coli K99.
Test [37] has as its system Lacticaseibacillus rhamnosus 1.0385.
In test [38] the test system is Lacticaseibacillus rhamnosus 1.0386.
Test [39] deals with Lacticaseibacillus rhamnosus 1.0911.
The test system of test [40] is Lacticaseibacillus rhamnosus 1.9205.
The test system of test [41] is Lacticaseibacillus rhamnosus 7469.
For test [42], the system named is Lactiplantibacillus plantarum 8014.
The subject of test [43] is Salmonella enterica subsp. enterica serovar Typhimurium C77-31.
The test system of test [44] is Staphylococcus aureus ATCC 25923.
The subject of test [45] is Staphylococcus aureus ATCC 29213.
Test [46] concerns Staphylococcus epidermidis ATCC 12228.
Test [47] has as its system Streptococcus agalactiae ATCC 13813.

SMILES strings stand for the structures. ≈ marks a conversion by molar mass, not a printed value.

As for `CC[C@H](C)[C@H](NC(=O)[C@H](C)NC(=O)[C@H](CCCCN)NC(=O)[C@H](CC(C)C)NC(=O)[C@H](C)NC(=O)[C@H](Cc1c[nH]c2ccccc12)NC(=O)[C@H](CCCCN)NC(=O)[C@H](C)NC(=O)[C@H](CC(C)C)NC(=O)[C@@H](NC(=O)CNC(=O)[C@H](Cc1c[nH]c2ccccc12)NC(=O)[C@@H](N)Cc1ccccc1)[C@@H](C)O)C(=O)N1CCC[C@H]1C(=O)N[C@@H](C)C(=O)N[C@@H](C)C(=O)N[C@@H](CCSC)C(=O)NCC(=O)N[C@@H](CCSC)C(=O)N[C@@H](CCCCN)C(=O)N[C@@H](CCC(N)=O)C(=O)N[C@@H](CC(N)=O)C(=O)N[C@@H](CCCCN)C(=O)O` [FWGTLAKWALKAIPAAMGMKQNK], the MIC was determined as 10 µM (≈ 25.6 µg/mL) in [1]; 10 µM (≈ 25.6 µg/mL) in [2]; 5 µM (≈ 12.8 µg/mL) in test [3]; 10 µM (≈ 25.6 µg/mL) in [4]; 10 µM (≈ 25.6 µg/mL) in test [5].

In the case of `CC[C@H](C)[C@H](NC(=O)[C@H](CC(=O)O)NC(=O)[C@@H](NC(=O)[C@@H](NC(=O)[C@H](C)NC(=O)CN)C(C)C)C(C)C)C(=O)N[C@@H](CC(C)C)C(=O)N[C@@H](CCCCN)C(=O)NCC(=O)N[C@@H](C)C(=O)NCC(=O)N[C@@H](CCCCN)C(=O)N[C@@H](CC(N)=O)C(=O)N[C@@H](CC(C)C)C(=O)N[C@@H](CC(C)C)C(=O)N[C@@H](CO)C(=O)N[C@@H](CC(C)C)C(=O)N[C@@H](C)C(=O)N[C@@H](CC(C)C)C(=O)N[C@@H](CC(N)=O)C(=O)N[C@@H](CCCCN)C(=O)N[C@@H](CC(C)C)C(=O)N[C@@H](CO)C(=O)N[C@@H](CCC(=O)O)C(=O)N[C@@H](CCCCN)C(=O)N[C@H](C(N)=O)C(C)C` [GAVVDILKGAGKNLLSLALNKLSEKV], the minimal inhibitory concentration (MIC) in [6] is not below 250 µM; in test [7] it was not below 250 µM; in test [8] it was not below 62.5 µM; in [9] it was not below 125 µM; in test [10], not below 125 µM; in [11] it was more than 125 µM. Further, the results for the minimal inhibitory concentration (MIC) in [12], in [13] and in [14] were 250 µM (≈ 663 µg/mL), not below 250 µM and not below 250 µM, respectively.

On to `CC[C@H](C)[C@H](N)C(=O)N[C@@H](CC(C)C)C(=O)N[C@@H](CCCCN)C(=O)N[C@@H](Cc1c[nH]c2ccccc12)C(=O)N[C@@H](CCCCN)C(=O)N[C@@H](CCCN=C(N)N)C(=O)N[C@@H](CCCCN)C(=O)N[C@@H](Cc1c[nH]c2ccccc12)C(=O)N[C@@H](Cc1c[nH]c2ccccc12)C(=O)N[C@@H](CCCCN)C(=O)N[C@@H](Cc1c[nH]c2ccccc12)C(=O)N[C@@H](Cc1ccccc1)C(=O)N[C@@H](CCCN=C(N)N)C(N)=O` [ILKWKRKWWKWFR], for which the minimal inhibitory concentration (MIC) in test [15] was 8 µM (≈ 15.7 µg/mL); in test [16], 4 µM (≈ 7.84 µg/mL); in [17] it was not below 32 µM; in [18], 2 µM (≈ 3.92 µg/mL).

As to `CC[C@H](C)[C@H](NC(=O)[C@H](Cc1ccccc1)NC(=O)[C@H](CO)NC(=O)[C@H](CCCCN)NC(=O)[C@H](Cc1c[nH]c2ccccc12)NC(=O)[C@@H](N)CCCCN)C(=O)N[C@@H](CCCCN)C(=O)N[C@@H](CCCCN)C(=O)N[C@@H](CC(C)C)C(=O)N[C@H](C(=O)N[C@@H](CCCCN)C(=O)N[C@@H](C)C(=O)N[C@@H](C)C(=O)N[C@@H](CCCCN)C(=O)N[C@@H](CCCCN)C(=O)N[C@H](C(=O)N[C@H](C(=O)N[C@H](C(=O)N[C@H](C(=O)N[C@@H](C)C(=O)N[C@@H](CCCCN)C(=O)N[C@@H](CCCCN)C(=O)N1CCC[C@H]1C(=O)N[C@@H](CC(C)C)C(=O)N[C@H](C(=O)N[C@H](C(N)=O)C(C)C)[C@@H](C)CC)[C@@H](C)O)[C@@H](C)O)C(C)C)C(C)C)[C@@H](C)O` [KWKSFIKKLTKAAKKVVTTAKKPLIV], the minimal inhibitory concentration (MIC) in test [19] was 1.35 µM (≈ 4 µg/mL); in test [20], more than 43.3 µM; in test [21], 0.677 µM (≈ 2 µg/mL); in test [22], 0.677 µM (≈ 2 µg/mL); in [23], 1.35 µM (≈ 4 µg/mL); in test [24] it was 1.35 µM (≈ 4 µg/mL). For the same compound, the MIC in test [25] turned out to be 10.8 µM (≈ 32 µg/mL); in [18], 1.35 µM (≈ 4 µg/mL); in [26] it was 0.677 µM (≈ 2 µg/mL); in [27] it was 0.677 µM (≈ 2 µg/mL); in test [28], 0.677 µM (≈ 2 µg/mL); in test [29] it was 1.35 µM (≈ 4 µg/mL). The MIC in test [30] was more than 43.3 µM; in [31], 0.338 µM (≈ 1 µg/mL).

For the compound `CC(C)C[C@H](NC(=O)[C@H](CCCN=C(N)N)NC(=O)[C@@H](NC(=O)[C@H](CCCN=C(N)N)NC(=O)[C@@H]1CCCN1C(=O)[C@H](CCCN=C(N)N)NC(=O)[C@H](CCCCN)NC(=O)[C@@H](N)CCC(N)=O)C(C)C)C(=O)N[C@@H](CO)C(=O)N[C@@H](C)C(=O)O` [QKRPRVRLSA], the minimum inhibitory concentration (MIC) in test [32] is not below 128 µM; in [33] it was not below 128 µM; in [34], 64 µM (≈ 77.5 µg/mL); in test [35], not below 64 µM; in [36], not below 64 µM; in test [21], not below 128 µM. For the same compound, the MIC in test [37], in [38], in test [39], in test [40], in test [41] and in test [42] was not below 128 µM throughout. In addition, the MIC in test [11] is more than 128 µM; in test [43], not below 128 µM; in test [44], more than 128 µM; in test [45], more than 128 µM; in test [46], more than 128 µM; in test [47] it was not below 128 µM.
